The NIST ThermoML archive (doi:10.1016/j.tca.2012.09.009)

Experiment: osmotic coefficient (dimensionless); mn = molality of the nth substance listed, in mol/kg
Settings: 323.15 K, 101 kPa, Liquid, isopiestic method

CCCC[n+]1cccc(C)c1.O=S(=O)([N-]S(=O)(=O)C(F)(F)F)C(F)(F)F + CC(C)O
Settings	osmotic coefficient
m1 = 0.0504	0.909
m1 = 0.0795	0.805
m1 = 0.0981	0.729
m1 = 0.2086	0.596
m1 = 0.2979	0.536
m1 = 0.3949	0.498
m1 = 0.4981	0.454
m1 = 0.7859	0.384
m1 = 1.188	0.321
m1 = 1.583	0.266
m1 = 1.975	0.244
m1 = 2.381	0.233
m1 = 2.763	0.234
m1 = 3.323	0.225

CC[n+]1cccc(C)c1.O=S(=O)([N-]S(=O)(=O)C(F)(F)F)C(F)(F)F + CCCO
Settings	osmotic coefficient
m1 = 0.0291	0.924
m1 = 0.0485	0.788
m1 = 0.0836	0.704
m1 = 0.104	0.68
m1 = 0.2111	0.57
m1 = 0.3124	0.496
m1 = 0.4076	0.411
m1 = 0.5148	0.354
m1 = 0.8269	0.297
m1 = 1.23	0.237
m1 = 1.577	0.211
m1 = 2.059	0.18
m1 = 2.455	0.161
m1 = 2.8	0.15

CC[n+]1cccc(C)c1.O=S(=O)([N-]S(=O)(=O)C(F)(F)F)C(F)(F)F + CC(C)O
Settings	osmotic coefficient
m1 = 0.049	0.951
m1 = 0.0748	0.834
m1 = 0.0982	0.752
m1 = 0.2129	0.605
m1 = 0.3058	0.529
m1 = 0.404	0.464
m1 = 0.5051	0.428
m1 = 0.8164	0.335
m1 = 1.211	0.274
m1 = 1.625	0.233
m1 = 2.011	0.21
m1 = 2.415	0.19
m1 = 2.847	0.176
m1 = 3.335	0.174

CCCC[n+]1cccc(C)c1.O=S(=O)([N-]S(=O)(=O)C(F)(F)F)C(F)(F)F + CCCO
Settings	osmotic coefficient
m1 = 0.0318	0.917
m1 = 0.0485	0.78
m1 = 0.0788	0.72
m1 = 0.2157	0.571
m1 = 0.3181	0.487
m1 = 0.417	0.44
m1 = 0.527	0.389
m1 = 0.8342	0.324
m1 = 1.24	0.274
m1 = 1.63	0.229
m1 = 2.053	0.203
m1 = 2.439	0.191
m1 = 2.768	0.182
m1 = 3.304	0.174

CCC[n+]1cccc(C)c1.O=S(=O)([N-]S(=O)(=O)C(F)(F)F)C(F)(F)F + CCCO
Settings	osmotic coefficient
m1 = 0.0279	0.943
m1 = 0.0456	0.826
m1 = 0.0782	0.699
m1 = 0.0966	0.651
m1 = 0.2052	0.553
m1 = 0.2936	0.504
m1 = 0.3902	0.435
m1 = 0.5073	0.363
m1 = 0.8376	0.294
m1 = 1.261	0.242
m1 = 1.656	0.217
m1 = 2.045	0.196
m1 = 2.425	0.175
m1 = 2.825	0.165
m1 = 3.31	0.159

CCCC[n+]1cccc(C)c1.O=S(=O)([N-]S(=O)(=O)C(F)(F)F)C(F)(F)F + CCC(C)O
Settings	osmotic coefficient
m1 = 0.0527	0.735
m1 = 0.0838	0.623
m1 = 0.1035	0.581
m1 = 0.2136	0.45
m1 = 0.3113	0.379
m1 = 0.411	0.337
m1 = 0.5068	0.292
m1 = 0.7963	0.235
m1 = 1.217	0.195
m1 = 1.576	0.171
m1 = 2.032	0.149
m1 = 2.408	0.135
m1 = 2.799	0.126
m1 = 3.261	0.119

CCC[n+]1cccc(C)c1.O=S(=O)([N-]S(=O)(=O)C(F)(F)F)C(F)(F)F + CC(C)O
Settings	osmotic coefficient
m1 = 0.0497	0.974
m1 = 0.0805	0.806
m1 = 0.1081	0.756
m1 = 0.1987	0.632
m1 = 0.2986	0.508
m1 = 0.41	0.415
m1 = 0.5278	0.379
m1 = 0.8355	0.334
m1 = 1.221	0.281
m1 = 1.623	0.24
m1 = 2.072	0.217
m1 = 2.437	0.206
m1 = 2.828	0.191
m1 = 3.326	0.184

CCCC[n+]1cccc(C)c1.O=S(=O)([N-]S(=O)(=O)C(F)(F)F)C(F)(F)F + CCCCO
Settings	osmotic coefficient
m1 = 0.0539	0.692
m1 = 0.082	0.581
m1 = 0.1023	0.508
m1 = 0.1892	0.403
m1 = 0.3045	0.305
m1 = 0.4112	0.259
m1 = 0.5115	0.238
m1 = 0.8265	0.203
m1 = 1.232	0.179
m1 = 1.58	0.155
m1 = 2.087	0.132
m1 = 2.466	0.12
m1 = 2.878	0.112
m1 = 3.434	0.102
